Legend:
Test in all cases: HLA class II peptide-binding assay (competitive ELISA)
DRB1*0101 = DRB1*0101 (Homo sapiens, UniProt P01903+P01911, A100R/D57E/F55L/F60I/F76Y/I96L/L162R/M171V/P40L/Q125E/R42F/V115G/Y59C); settings: immunopurified HLA, reference peptide IC50 3 nM, ratio ≤20 high affinity, 20–200 moderate affinity
DRB1*0301 = DRB1*0301 (Homo sapiens, UniProt P01903+P01911, A100K/A102G/A103R/A169T/F55Y/I96L/K41T/L162R/M171V/P40S/Q125H/Q178H/Q39Y/R42S/S66N/T106N/T262R/W38E/Y61H); settings: immunopurified HLA, reference peptide IC50 423 nM, ratio ≤20 high affinity, 20–200 moderate affinity
DRB1*0401 = DRB1*0401 (Homo sapiens, UniProt P01903+P01911, A100K/A169T/F76Y/I96L/K127E/L162R/M171V/N62H/P40V/Q125Y/R42H/S133A/S149N/S66Y/V115G/V209L/W38E); settings: immunopurified HLA, reference peptide IC50 8 nM, ratio ≤20 high affinity, 20–200 moderate affinity
DRB1*0701 = DRB1*0701 (Homo sapiens, UniProt P01903+P01911, A100R/A102G/A103Q/D57E/D86V/E43K/F76Y/K127E/L162R/M171V/P40G/Q125H/Q99D/R33Q/R42Y/R54Q/S133A/S66F/T210M/V115G/Y107V/Y59L/Y89S); settings: immunopurified HLA, reference peptide IC50 5 nM, ratio ≤20 high affinity, 20–200 moderate affinity
DRB1*1101 = DRB1*1101 (Homo sapiens, UniProt P01903+P01911, A100R/A169T/A87E/I96F/K41T/L162R/M171V/P40S/Q125H/Q178H/Q39Y/Q99D/R42S/S66Y/T262R/V115G/W38E); settings: immunopurified HLA, reference peptide IC50 50 nM, ratio ≤20 high affinity, 20–200 moderate affinity
DRB1*1301 = DRB1*1301 (Homo sapiens, UniProt P01903+P01911, A100E/A169T/K41T/L162R/M171V/P40S/Q125H/Q178H/Q39Y/Q99D/R42S/S66N/T262R/W38E/Y61H); settings: immunopurified HLA, reference peptide IC50 208 nM, ratio ≤20 high affinity, 20–200 moderate affinity
DRB1*1501 = DRB1*1501 (Homo sapiens, UniProt P01903+P01911); settings: immunopurified HLA, reference peptide IC50 775 nM, ratio ≤20 high affinity, 20–200 moderate affinity
DRB3 = system: DRB3; parameters: species or system human; settings: DRB3; competitive ELISA, immunopurified HLA; reference peptide IC50 60 nM; ratio ≤20 high affinity, 20–200 moderate affinity
DRB4 = system: DRB4; parameters: species or system human; settings: DRB4; competitive ELISA, immunopurified HLA; reference peptide IC50 8 nM; ratio ≤20 high affinity, 20–200 moderate affinity
DRB5 = system: DRB5; parameters: species or system human; settings: DRB5; competitive ELISA, immunopurified HLA; reference peptide IC50 7 nM; ratio ≤20 high affinity, 20–200 moderate affinity

Row | relative binding ratio (IC50 of the test peptide divided by IC50 of the reference peptide) (DRB1*0101) | relative binding ratio (IC50 of the test peptide divided by IC50 of the reference peptide) (DRB1*0301) | relative binding ratio (IC50 of the test peptide divided by IC50 of the reference peptide) (DRB1*0401) | relative binding ratio (IC50 of the test peptide divided by IC50 of the reference peptide) (DRB1*0701) | relative binding ratio (IC50 of the test peptide divided by IC50 of the reference peptide) (DRB1*1101) | relative binding ratio (IC50 of the test peptide divided by IC50 of the reference peptide) (DRB1*1301) | relative binding ratio (IC50 of the test peptide divided by IC50 of the reference peptide) (DRB1*1501) | relative binding ratio (IC50 of the test peptide divided by IC50 of the reference peptide) (DRB3) | relative binding ratio (IC50 of the test peptide divided by IC50 of the reference peptide) (DRB4) | relative binding ratio (IC50 of the test peptide divided by IC50 of the reference peptide) (DRB5) | Sequence
1 | > 3844 | 8 | > 1 260 | > 1 874 | 105 | 236 | > 13 | > 167 | > 1 179 | > 1 443 | KPVRGVKLVGRDPKNNL [pTL7, Tear lipocalin peptide p108–124]
2 | 31 | > 236 | 3 | 2 222 | 3 | > 481 | 5 | > 167 | 121 | 16 | HYIFYCEGELHGKPVR [pTL6, Tear lipocalin peptide p96–111]
3 | 155 | > 236 | 189 | 71 | 2 | 245 | > 13 | > 167 | > 1 179 | 101 | ALEDFREFSRAKGLNQ [pC8, Can f 1 peptide p125–140]
4 | 17 | > 236 | 31 | 65 | 0.2 | > 481 | > 13 | 2 | > 1 179 | 433 | PGKYTADGGKHVAYII [pTL4, Tear lipocalin peptide p74–89]
5 | 54 | > 236 | 113 | 230 | > 200 | > 481 | > 13 | > 167 | > 1 179 | > 1 443 | EILELAQSETCSPGGQ [pC9, Can f 1 peptide p141–156]

The remaining lines, values behind:

Row | Sequence | relative binding ratio (IC50 of the test peptide divided by IC50 of the reference peptide) (DRB1*0101) | relative binding ratio (IC50 of the test peptide divided by IC50 of the reference peptide) (DRB1*0301) | relative binding ratio (IC50 of the test peptide divided by IC50 of the reference peptide) (DRB1*0401) | relative binding ratio (IC50 of the test peptide divided by IC50 of the reference peptide) (DRB1*0701) | relative binding ratio (IC50 of the test peptide divided by IC50 of the reference peptide) (DRB1*1101) | relative binding ratio (IC50 of the test peptide divided by IC50 of the reference peptide) (DRB1*1301) | relative binding ratio (IC50 of the test peptide divided by IC50 of the reference peptide) (DRB1*1501) | relative binding ratio (IC50 of the test peptide divided by IC50 of the reference peptide) (DRB3) | relative binding ratio (IC50 of the test peptide divided by IC50 of the reference peptide) (DRB4) | relative binding ratio (IC50 of the test peptide divided by IC50 of the reference peptide) (DRB5)
6 | RQIRMAKLLGRDPEQSQ [pC7, Can f 1 peptide p107–123] | 66 | 4 | 661 | > 1 874 | 92 | 2 | > 13 | > 167 | 94 | 1
7 | KPDSVTPMILKAQKGGNL [pC2, Can f 1 peptide p31–48] | 141 | 1 | 72 | > 1 874 | 11 | 26 | > 13 | 1 | > 1 179 | 144
8 | GQRVVFIQPSPVRDHY [pC5, Can f 1 peptide p81–96] | 1 | 28 | 101 | 61 | 179 | 33 | 7 | > 167 | 1 054 | 3
9 | HYILYCEGELHGRQIR [pC6, Can f 1 peptide p95–110] | 48 | 14 | 91 | 644 | 78 | 40 | 7 | > 167 | 62 | 50
10 | GKWYLKAMTADQEVPE [pC1, Can f 1 peptide p15–30] | 32 | 1 | 1 | 75 | 70 | 26 | 8 | > 167 | 29 | 72
11 | LEAKITMLTNGQCQNIT [pC3, Can f 1 peptide p48–64] | 4 | 33 | 50 | 103 | 89 | 471 | 2 | > 167 | > 1 179 | 339
